Laboratory results published in patent US9976141B2, “Compositions and methods for inhibiting gene expression of Hif2alpha” (Arrowhead Madison Inc., priority 2015, dated 2018).

These substances were tested on human (tumor) Hif2α (EPAS1) mRNA (assay: Hif2α knockdown in orthotopic RCC tumor bearing mice, single injection of RNAi trigger-delivery polymer conjugate, RT-qPCR (Table 7)). Conditions: RNAi trigger 80 μg, polymer 126 400 μg; single tail vein injection; relative to isotonic glucose.
Format: in vivo
Description: A pCR3.1 expression vector expressing the reporter gene secreted alkaline phosphatase (SEAP) under the CMV promoter was prepared by directional cloning of the SEAP coding sequence PCR amplified from Clontech's pSEAP2-basic vector. Convenient restriction sites were added onto primers used to amplify the SEAP coding sequence for cloning into the pCR3.1 vector (Invitrogen). The resultant construct pCR3-SEAP was used to create a SEAP-expressing A498 ccRCC cell line. Briefly, pCR3-SEAP plasmid was transfected into A498 ccRCC cells by electroporation following manufacturer's recommendation. Stable transfectants were selected by G418 resistance. Selected A498-SEAP clones were evaluated for SEAP expression and integration stability.
Female athymic nude mice were anesthetized with ˜3% isoflourane and placed in the right lateral decubitus position. A small, 0.5-1 cm, longitudinally abdominal incision in the left flank was made. Using a moist cotton swab, the left kidney was lifted out of the peritoneum and gently stabilized. Just before injection, a 1.0 ml syringe was filled with the cell/Matrigel mixture and a 27 gauge needle catheter was attached to the syringe tip. The filled syringe was then attached to a syringe pump (Harvard Apparatus, model PHD2000) and primed to remove air. The tip of a 27-gauge needle catheter attached to a syringe was inserted just below the renal capsule near the caudal pole and the tip of the needle was then carefully advanced cranially along the capsule 3-4 mm. A 10 μl aliquot of 2:1 (vol:vol) cell/matrigel mixture containing about 300,000 cells was slowly injected into the kidney parenchyma using a syringe pump. The needle was left in the kidney for 15-20 seconds to ensure the injection was complete. The needle was then removed from the kidney and a cotton swab was placed over the injection site for 30 seconds to prevent leakage of the cells or bleeding. The kidney was then gently placed back into the abdomen and the abdominal wall was closed. Serum was collected every 7-14 days after implantation to monitor tumor growth using a commercial SEAP assay kit. For most studies, tumor mice were used 5-6 weeks after implantation, when tumor measurements were typically around 4-8 mm.
RGD targeted HiF2α-RNAi trigger delivery conjugates. Delivery polymers were modified using RGD-PEG-HyNic, RGD-PEG-ACit-PNP, or RDG-PEG-FCitFP-TFP and PEG-dipeptide modifying agents. The indicated amount of polymer 126 or 100A polymer was modified with 8×PEG12-ACit-PABC-PNP/0.5× aldehyde-PEG24-FCit-PABC-PNP (with RGD mimic #1-PEG-HyNic using protocol #1) and the indicated amount of the indicated Hif2α RNAi trigger. Polymer 064 was modified according to protocol 7. Kidney RCC tumor-bearing mice were generated as described and treated with a single tail vein injection of isotonic glucose (G1) or the indicated Hif2α RNAi trigger-delivery polymer conjugate. Mice were euthanized at the indicated time after injection and total RNA was prepared from kidney tumor using Trizol reagent following manufacturer's recommendation. Relative HiF2α mRNA levels were determined by RT-qPCR as described below and compared to mice treated with delivery buffer (isotonic glucose) only.
In preparation for quantitative PCR, total RNA was isolated from tissue samples homogenized in TriReagent (Molecular Research Center, Cincinnati, Ohio) following the manufacturer's protocol. Approximately 500 ng RNA was reverse-transcribed using the High Capacity cDNA Reverse Transcription Kit (Life Technologies). For human (tumor) Hif2α (EPAS1) expression, pre-manufactured TaqMan gene expression assays for human Hif2α (Catalog #4331182) and CycA (PPIA) Catalog #: 4326316E) were used in biplex reactions in triplicate using TaqMan Gene Expression Master Mix (Life Technologies) or VeriQuest Probe Master Mix (Affymetrix). […]
For “AD01025 (antisense TCUAGCAACAAAACCUUAATT; sense UUAAGGUUUUGUUGCUAGAT; Hif2alpha RNAi agent antisense strand; modified_base 2,4,6,8,10,12,14,16,18 /mod_base = “2′-deoxy-2′-fluoro corresponding nucleoside”; modified_base 3,5,7,9,11,13,15,17,19 /mod_base = “2′-O-methyl corresponding nucleoside”; modified_base 21 /mod_base = “5′-phosphorothioate corresponding nucleotide”; Hif2alpha RNAi agent sense strand; modified_base 1,3,5,7,9,11,13,15,17,19 /mod_base = “2′-deoxy-2′-fluoro corresponding nucleoside”; modified_base 2,4,6,8,10,12,14,16,18 /mod_base = “2′-O-methyl corresponding nucleoside”; modified_base 20 /mod_base = “3′-3′-linked nucleotide”; modified_base 1 /mo)”, the “Relative Expression day 4 (Hif2α mRNA in kidney tumor)” value was 0.34. “AD01026 (antisense TAAAUCGUUACGUUGACAGTT; sense CUGUCAACGUAACGAUUUAT; Hif2alpha RNAi agent antisense strand; modified_base 2,4,8,10,12,14,16,18 /mod_base = “2′-deoxy-2′-fluoro corresponding nucleoside”; modified_base 3,5,7,9,11,13,15,17,19 /mod_base = “2′-O-methyl corresponding nucleoside”; modified_base 6 /mod_base = “2′-3′ seco corresponding nucleotide”; modified_base 21 /mod_base = “5′-phosphorothioate corresponding nucleotide”; Hif2alpha RNAi agent sense strand; modified_base 1,3,5,7,9,11,13,15,17,19 /mod_base = “2′-deoxy-2′-fluoro corresponding nucleoside”; modified_base 2,4,6,8,10,12,14,16,18 /mod_base = “2′-O-methyl corresponding nucleoside”; modified_b)” was tested, and the “Relative Expression day 4 (Hif2α mRNA in kidney tumor)” value was 0.97. For “AD01027 (antisense TAAAUCGUUACGUUGACAGTT; sense CUGUCAACGUAACGAUUUAT; Hif2alpha RNAi agent antisense strand; modified_base 2,4,6,8,10,12,14,16,18 /mod_base = “2′-deoxy-2′-fluoro corresponding nucleoside”; modified_base 3,5,9,11,13,15,17,19 /mod_base = “2′-O-methyl corresponding nucleoside”; modified_base 7 /mod_base = “2′-3′ seco corresponding nucleotide”; modified_base 21 /mod_base = “5′-phosphorothioate corresponding nucleotide”; Hif2alpha RNAi agent sense strand; modified_base 1,3,5,7,9,11,13,15,17,19 /mod_base = “2′-deoxy-2′-fluoro corresponding nucleoside”; modified_base 2,4,6,8,10,12,14,16,18 /mod_base = “2′-O-methyl corresponding nucleoside”; modified_b)”, the “Relative Expression day 4 (Hif2α mRNA in kidney tumor)” value was 0.92. In the case of “AD01028 (antisense TAAAUCGUUACGUUGACAGTT; sense CUGUCAACGUAACGAUUUAT; Hif2alpha RNAi agent antisense strand; modified_base 2,4,6,8,10,12,14,16,18 /mod_base = “2′-deoxy-2′-fluoro corresponding nucleoside”; modified_base 3,5,7,9,11,13,15,17,19 /mod_base = “2′-O-methyl corresponding nucleoside”; modified_base 21 /mod_base = “5′-phosphorothioate corresponding nucleotide”; Hif2alpha RNAi agent sense strand; modified_base 1,3,5,7,9,11,13,15,17,19 /mod_base = “2′-deoxy-2′-fluoro corresponding nucleoside”; modified_base 2,4,6,8,10,12,14,16,18 /mod_base = “2′-O-methyl corresponding nucleoside”; modified_base 20 /mod_base = “3′-3′-linked nucleotide”; modified_base 1 /mo)”, the “Relative Expression day 4 (Hif2α mRNA in kidney tumor)” value is reported as 0.39. “AD01029 (antisense TUUCAUGAAAUCGUUACGUTT; sense ACGUAACGAUUUCAUGAAAT; Hif2alpha RNAi agent antisense strand; modified_base 2,4,8,10,12,14,16,18 /mod_base = “2′-deoxy-2′-fluoro corresponding nucleoside”; modified_base 3,5,7,9,11,13,15,17,19 /mod_base = “2′-O-methyl corresponding nucleoside”; modified_base 6 /mod_base = “2′-3′ seco corresponding nucleotide”; modified_base 21 /mod_base = “5′-phosphorothioate corresponding nucleotide”; Hif2alpha RNAi agent sense strand; modified_base 1,3,5,7,9,11,13,15,17,19 /mod_base = “2′-deoxy-2′-fluoro corresponding nucleoside”; modified_base 2,4,6,8,10,12,14,16,18 /mod_base = “2′-O-methyl corresponding nucleoside”; modified_b)” was tested, and the “Relative Expression day 4 (Hif2α mRNA in kidney tumor)” value was 0.94. For “AD01030 (antisense TUUCAUGAAAUCGUUACGUTT; sense ACGUAACGAUUUCAUGAAAT; Hif2alpha RNAi agent antisense strand; modified_base 2,4,6,8,10,12,14,16,18 /mod_base = “2′-deoxy-2′-fluoro corresponding nucleoside”; modified_base 3,5,9,11,13,15,17,19 /mod_base = “2′-O-methyl corresponding nucleoside”; modified_base 7 /mod_base = “2′-3′ seco corresponding nucleotide”; modified_base 21 /mod_base = “5′-phosphorothioate corresponding nucleotide”; Hif2alpha RNAi agent sense strand; modified_base 1,3,5,7,9,11,13,15,17,19 /mod_base = “2′-deoxy-2′-fluoro corresponding nucleoside”; modified_base 2,4,6,8,10,12,14,16,18 /mod_base = “2′-O-methyl corresponding nucleoside”; modified_b)”, the “Relative Expression day 4 (Hif2α mRNA in kidney tumor)” value was 0.47. In the case of “AD01032 (antisense TAAGUUAAGCUCCCAUACATT; sense UGUAUGGGAGCUUAACUUAT; Hif2alpha RNAi agent antisense strand; modified_base 2,4,8,10,12,14,16,18 /mod_base = “2′-deoxy-2′-fluoro corresponding nucleoside”; modified_base 3,5,7,9,11,13,15,17,19 /mod_base = “2′-O-methyl corresponding nucleoside”; modified_base 6 /mod_base = “2′-3′ seco corresponding nucleotide”; modified_base 21 /mod_base = “5′-phosphorothioate corresponding nucleotide”; Hif2alpha RNAi agent sense strand; modified_base 1,3,5,7,9,11,13,15,17,19 /mod_base = “2′-deoxy-2′-fluoro corresponding nucleoside”; modified_base 2,4,6,8,10,12,14,16,18 /mod_base = “2′-O-methyl corresponding nucleoside”; modified_b)”, the “Relative Expression day 4 (Hif2α mRNA in kidney tumor)” value is reported as 1.00.
